Earlier results as cited in patent US20070098710A1, “Anxiolytic composition comprising essential oil derived from plants as active ingredients, anxiolytic comprising thereof, and a producing method thereof” (NATURE TECHNOLOGY, INC., priority 2004, published 2007).

Tests used:
male ICR mice = conditions: mouse, administered previously

CN1C(=O)CN=C(c2ccccc2)c2cc(Cl)ccc21 [diazepam]
change of the emotionality (inhibition of looking into hole) by restraint stress (male ICR mice): improved

CC1CCC(C(C)C)C(O)C1 (stereo not drawn) [l-menthol, 5-methyl 2-(1-methylethyl)cyclohexanol]
solubility in ethanol (ethanol): soluble in ethanol
solubility in water (water): insoluble in water
